Experimental data from patent US20240059753A1, “COMPOSITIONS INCLUDING MULTI-AGONIST PEPTIDES AND METHODS OF MANUFACTURE AND USE” (Pep2Tango Therapeutics Inc., priority 2022, published 2024).
Where a name gives a salt, the structure may show the parent alone.

What was measured:
Human GIPR = molecular target: T1, Human GIPR (Homo sapiens, UniProt P48546); experiment: GPCR cell-based cAMP assay, human GIP receptor; details: stably transfected CHO-Kl cells, 0.1% casein
T1 construct: expressed in transfected cells; host or cells: CHO-K1, stably transfected
T1 sequence (P48546 22-466): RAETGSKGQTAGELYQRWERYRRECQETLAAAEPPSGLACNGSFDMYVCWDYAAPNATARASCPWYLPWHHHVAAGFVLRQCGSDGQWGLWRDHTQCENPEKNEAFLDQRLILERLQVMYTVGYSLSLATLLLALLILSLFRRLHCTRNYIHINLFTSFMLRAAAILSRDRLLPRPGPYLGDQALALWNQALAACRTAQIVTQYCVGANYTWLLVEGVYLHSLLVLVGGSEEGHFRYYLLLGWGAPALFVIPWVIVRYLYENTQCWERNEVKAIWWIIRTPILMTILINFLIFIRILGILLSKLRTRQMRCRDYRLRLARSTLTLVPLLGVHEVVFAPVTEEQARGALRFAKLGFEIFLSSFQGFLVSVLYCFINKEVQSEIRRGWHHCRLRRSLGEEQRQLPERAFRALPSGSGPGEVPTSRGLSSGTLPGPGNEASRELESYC
Description: (§1) Experimental protocol: Cells were seeded in a total volume of 20 μL into white walled, 384-well microplates and incubated at 37° C. overnight prior to testing. Prior to testing cell plating media was exchanged with 10 μL of Assay buffer (HBSS+10 mM HEPES). All compounds were run in assay buffer containing 0.1% casein. Briefly, intermediate dilution of sample stocks was performed to generate 4× sample in assay buffer. 5 μL of 4× sample was added to cells and incubated at 37° C. for 30 minutes. Final assay vehicle concentration was 1%. […] Microplates were read following signal generation with PerkinElmer Envision instrument for chemiluminescent signal detection.
(§2) The results are expressed as a percent efficacy relative to the maximum response of the control ligand.

lean rats = experiment: Acute food intake and body weight reduction in lean rats; assay type: in vivo, Sprague Dawley male rats; details: single s.c. 10 nmol/Kg, mean ± SEM
Description: Food intake was measured at different time-intervals post-injection up to 72 h using a precision balance. Cumulative food intake was calculated for the indicated time-periods. Body weight was measured at the indicated time-periods. Mean of cumulative food intake in each dose group was compared to vehicle and reported as a percentage of mean reduction relative to vehicle.
All data shown are the mean±standard error (SEM).

4 h fasted mice = experiment: Blood glucose after single administration of peptides; assay type: in vivo; details: 4 h fasted mice, single s.c. 10 nmol/Kg, mean ± SEM
Description: (§3) Differences were considered statistically significant at p<0.05. Data analysis was carried out with GraphPad software (GraphPad Prism).

Human Calc/RAMP3R (AMY3) = molecular target: T2, Human Calc/RAMP3R (AMY3) (Homo sapiens, UniProt O60896+P30988); experiment: GPCR cell-based cAMP assay, human AMY3 receptor; details: stably transfected CHO-Kl cells, 0.1% casein
T2 construct: expressed in transfected cells; host or cells: CHO-K1, stably transfected
T2 sequence (P30988 25-474): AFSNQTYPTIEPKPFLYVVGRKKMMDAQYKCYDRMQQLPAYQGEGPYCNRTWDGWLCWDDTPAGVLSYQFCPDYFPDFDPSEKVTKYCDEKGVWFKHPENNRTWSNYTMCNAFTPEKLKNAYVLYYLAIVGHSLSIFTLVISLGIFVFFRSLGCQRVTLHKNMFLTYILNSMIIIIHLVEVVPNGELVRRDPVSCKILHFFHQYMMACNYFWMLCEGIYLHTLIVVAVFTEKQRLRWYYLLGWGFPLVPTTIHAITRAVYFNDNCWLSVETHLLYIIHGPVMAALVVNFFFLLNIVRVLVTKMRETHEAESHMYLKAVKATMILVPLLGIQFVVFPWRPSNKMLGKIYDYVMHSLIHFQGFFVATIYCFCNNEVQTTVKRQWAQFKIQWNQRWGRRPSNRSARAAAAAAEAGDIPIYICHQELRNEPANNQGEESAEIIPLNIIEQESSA
T2 sequence (O60896 24-148 partner): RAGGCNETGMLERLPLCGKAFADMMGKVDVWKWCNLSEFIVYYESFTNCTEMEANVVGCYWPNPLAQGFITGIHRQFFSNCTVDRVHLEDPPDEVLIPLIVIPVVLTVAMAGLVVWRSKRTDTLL
Description: as §1, §2

Human CalcitoninR = molecular target: T3, Human CalcitoninR (Homo sapiens, UniProt P30988); experiment: GPCR cell-based cAMP assay, human calcitonin receptor; details: stably transfected CHO-Kl cells, 0.1% casein
T3 construct: expressed in transfected cells; host or cells: CHO-K1, stably transfected
T3 sequence (P30988 25-474): T2 sequence (P30988 25-474)
Description: as §1, §2

Human GLP-1R [1] = molecular target: T4, Human GLP-1R (Homo sapiens, UniProt P43220); experiment: GPCR cell-based cAMP assay, human GLP-1 receptor; design: expressed in transfected cells; host or cells: CHO-K1, stably transfected; details: stably transfected CHO-Kl cells, 0.1% casein
Description: as §1, §2
Target sequence in this assay (P43220 24-463): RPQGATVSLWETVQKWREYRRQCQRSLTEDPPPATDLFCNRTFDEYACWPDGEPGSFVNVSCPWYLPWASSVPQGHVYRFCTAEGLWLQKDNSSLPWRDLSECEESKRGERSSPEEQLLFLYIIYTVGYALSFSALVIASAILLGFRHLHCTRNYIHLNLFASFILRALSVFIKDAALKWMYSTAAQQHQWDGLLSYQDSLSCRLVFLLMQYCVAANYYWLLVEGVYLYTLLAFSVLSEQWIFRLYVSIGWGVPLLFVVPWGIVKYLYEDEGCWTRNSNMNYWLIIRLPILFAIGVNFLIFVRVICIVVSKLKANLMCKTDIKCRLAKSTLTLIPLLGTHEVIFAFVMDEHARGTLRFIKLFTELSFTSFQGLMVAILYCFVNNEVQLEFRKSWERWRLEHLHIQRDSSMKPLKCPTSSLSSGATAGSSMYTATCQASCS

DIO mice = experiment: Food intake and body weight after repeated dosing in DIO mice; assay type: in vivo, C57BL/6j male mice; details: daily injection 10 nmol/kg for 20 days
Description: as §3

lean mice = experiment: Acute food intake in lean mice after single s.c. administration; assay type: in vivo, C57BL/6j male mice; details: mean ± SEM
Description: as §3

[2] = molecular target: T5, human calcitonin receptor (human) (UniProt P30988); experiment: cell-based or functional assay
T5 sequence (looked up): T2 sequence (P30988 25-474)

Human GLP-1R [3] = molecular target: T4, Human GLP-1R; experiment: cell-based or functional assay
[4] = molecular target: T6, human GIP receptor (human) (UniProt P48546); experiment: cell-based or functional assay
T6 sequence (looked up): T1 sequence (P48546 22-466)

Compound: CC[C@H](C)[C@H](NC(=O)[C@H](CC(C)C)NC(=O)[C@H](Cc1c[nH]c2ccccc12)NC(=O)[C@H](CCC(N)=O)NC(=O)[C@@H](NC(=O)[C@H](Cc1ccccc1)NC(=O)[C@H](C)NC(=O)[C@H](CCC(N)=O)NC(=O)[C@H](CCC(N)=O)NC(=O)[C@H](C)NC(=O)[C@@H](NC(=O)[C@H](CCCCN)NC(=O)[C@H](CC(=O)O)NC(=O)[C@H](CC(C)C)NC(=O)C(C)(C)NC(=O)[C@@H](NC(=O)[C@H](CO)NC(=O)[C@H](Cc1ccc(O)cc1)NC(=O)[C@H](CC(=O)O)NC(=O)[C@H](CO)NC(=O)[C@@H](NC(=O)[C@H](Cc1ccccc1)NC(=O)[C@@H](NC(=O)CNC(=O)[C@H](CCC(=O)O)NC(=O)C(C)(C)NC(=O)[C@@H](N)Cc1ccc(O)cc1)[C@@H](C)O)[C@@H](C)O)[C@@H](C)CC)[C@@H](C)CC)C(C)C)C(=O)N[C@@H](C)C(=O)NCC(=O)NCC(=O)N1CCC[C@H]1C(=O)N[C@@H](CO)C(=O)N[C@@H](CCCCN)C(=O)N[C@H]1CSSC[C@@H](C(=O)N[C@H](C(=O)N[C@@H](CC(C)C)C(=O)NCC(=O)N[C@@H](CCCNC(=N)N)C(=O)N[C@@H](CC(C)C)C(=O)N[C@@H](CO)C(=O)N[C@@H](CCC(N)=O)C(=O)N[C@@H](CCC(=O)O)C(=O)N[C@@H](CC(C)C)C(=O)N[C@@H](Cc2c[nH]cn2)C(=O)N[C@@H](CCCNC(=N)N)C(=O)N[C@@H](CC(C)C)C(=O)N[C@@H](CCC(N)=O)C(=O)N[C@H](C(=O)N[C@@H](Cc2ccc(O)cc2)C(=O)N2CCC[C@H]2C(=O)N[C@@H](CCCNC(=N)N)C(=O)N[C@H](C(=O)N[C@@H](CC(N)=O)C(=O)N[C@H](C(=O)NCC(=O)N[C@@H](CCCCNC(=O)COCCOCCNC(=O)COCCOCCNC(=O)CC[C@H](NC(=O)CCCCCCCCCCCCCCCCC(=O)O)C(=O)O)C(=O)N[C@@H](CC(N)=O)C(=O)N[C@H](C(=O)N[C@@H](Cc2ccc(O)cc2)C(N)=O)[C@@H](C)O)[C@@H](C)O)[C@@H](C)O)[C@@H](C)O)C(C)C)NC(=O)[C@H]([C@@H](C)O)NC(=O)[C@H](C)NC(=O)[C@H]([C@@H](C)O)NC(=O)[C@H](CC(N)=O)NC1=O [SEQ ID NO. 47, Y-Aib-E-G-T-F-T-S-D-Y-S-I-Aib-LDKIAQQAFVQWLIAGGPSKCNTATCVLGRLSQELHRLQTYPRTNTGK*-N-T-Y-NH2-acetate salt (wherein K* = Lys(AEEAc-AEEAc-γ-Glu-17-carboxyheptadecanoyl))]
- EC50 (Human GIPR): 0.121 nM
- Cumulative food intake reduction vs vehicle (lean rats; 4 H): 14.0 ± 7.72%
- Cumulative food intake reduction vs vehicle (lean rats; 12 H): 40.6 ± 4.52 %
- Cumulative food intake reduction vs vehicle (lean rats; 24 H): 40.8 ± 4.23 %
- Cumulative food intake reduction vs vehicle (lean rats; 48 H): 30.1 ± 3.03 %
- Cumulative food intake reduction vs vehicle (lean rats; 72 H): 14.3 ± 2.53 %
- Food intake reduction by intervals vs vehicle (lean rats; interval 0-4 H): 14.0 ± 7.72%
- Food intake reduction by intervals vs vehicle (lean rats; interval 4-12 H): 48.7 ± 5.41 %
- Food intake reduction by intervals vs vehicle (lean rats; interval 12-24 H): 42.9 ± 9.15 %
- Food intake reduction by intervals vs vehicle (lean rats; interval 24-48 H): 19.3 ± 2.41 %
- Food intake reduction by intervals vs vehicle (lean rats; interval 48-72 H): −23.3 ± 4.52 %
- Blood glucose, 120 min (4 h fasted mice; 120 min after injection): 102.2 ± 4.08 mg/dL
- Blood glucose, 240 min (4 h fasted mice; 240 min after injection): 77.0 ± 3.75 mg/dL
- Blood glucose, Time 0 (4 h fasted mice; Time 0 (baseline)): 174.7 ± 3.62 mg/dL
- EC50 (Human Calc/RAMP3R (AMY3)): 0.353 nM
- EC50 (Human CalcitoninR): 0.185 nM
- EC50 (Human GLP-1R [1]): 0.438 nM
- Effect on fasting insulin (DIO mice; 4 h fasted, FIG. 5): reduced
- Effect on fasting serum glucose (DIO mice; 4 h fasted, FIG. 5): reduced
- Effect on food intake in DIO mice (DIO mice; FIG. 2): reduce
- Effect on body weight in DIO mice (DIO mice; FIG. 3): reduce
- Effect on fat mass, assessed by MRI (DIO mice; FIG. 4): reduction of fat mass
- Cumulative food intake reduction relative to vehicle (lean mice; Table 12, 10 nmol/Kg, 8 H): 64.7 ± 2.16 %
- Cumulative food intake reduction relative to vehicle (lean mice; Table 12, 10 nmol/Kg, 24 H): 65.4 ± 1.53 %
- Cumulative food intake reduction relative to vehicle (lean mice; Table 12, 10 nmol/Kg, 48 H): 42.3 ± 1.61 %
- Cumulative food intake reduction relative to vehicle (lean mice; Table 12, 10 nmol/Kg, 72 H): 26.0 ± 2.27 %
- Cumulative food intake reduction relative to vehicle (lean mice; Table 13, 10 nmol/Kg, 8 H): 62.5 ± 2.81 %
- Cumulative food intake reduction relative to vehicle (lean mice; Table 13, 10 nmol/Kg, 24 H): 49.0 ± 5.24 %
- Cumulative food intake reduction relative to vehicle (lean mice; Table 13, 10 nmol/Kg, 48 H): 28.0 ± 3.62 %
- Cumulative food intake reduction relative to vehicle (lean mice; Table 13, 10 nmol/Kg, 72 H): 14.8 ± 2.78 %
- Cumulative food intake reduction relative to vehicle (lean mice; Table 13, 30 nmol/Kg, 8 H): 83.6 ± 2.44 %
- Cumulative food intake reduction relative to vehicle (lean mice; Table 13, 30 nmol/Kg, 24 H): 64.5 ± 4.61 %
- Cumulative food intake reduction relative to vehicle (lean mice; Table 13, 30 nmol/Kg, 48 H): 36.7 ± 2.82 %
- Cumulative food intake reduction relative to vehicle (lean mice; Table 13, 30 nmol/Kg, 72 H): 25.2 ± 2.60 %

Compound: Calcitonin (peptide)
- EC50 (nM), cell-based cAMP assay, CHO-K1 cells [2]: 0.026 nM

Compound: Exendin-4 (from UniProt P26349 48-86) (peptide)
- EC50 (nM), cell-based cAMP assay, CHO-K1 cells (Human GLP-1R [3]): 0.002 nM

Compound: GIP (peptide)
- EC50 (nM), cell-based cAMP assay, CHO-K1 cells [4]: 0.075 nM
